The values that follow come from ChEMBL document CHEMBL1147457, “Thiourea inhibitors of herpes viruses. Part 2: N-Benzyl-N'-arylthiourea inhibitors of CMV” (Bioorg Med Chem Lett, 2004).

In test [1] the test system is Human alphaherpesvirus 3. Put plainly: Inhibitory activity against varicella zoster virus was determined. It is filed as functional, organism-based.
Test [2] deals with Human alphaherpesvirus 2. Put plainly: Inhibitory activity against herpes simplex virus was determined. It is filed as functional, organism-based.
Test [3] relates to Cytomegalovirus. Put plainly: Inhibitory activity against cytomegalo virus was determined. The following applies: Human betaherpesvirus 5. It is filed as functional, organism-based.
In test [4] the test system is Respiratory syncytial virus. Put plainly: Inhibitory activity against respiratory syncytial virus was determined. It is filed as functional, organism-based. The following applies: human respiratory syncytial virus.
A short description of test [5]: Inhibitory activity against MTS host cell toxicity was determined. The test is classed as functional.

What is called IC50 is the concentration needed to halve the response being measured. Turning to `CC(C)(/N=C(\S)Nc1ccc(NC(=O)c2csnn2)cc1)c1cc(C(F)(F)F)cc(C(F)(F)F)c1`, the IC50 in test [1] is over 3.7 µM; in test [2], over 5 µM; in test [3], 0.004 µM; in test [4], over 5 µM; in test [5], over 7.5 µM.

As for `CCC(/N=C(\S)Nc1ccc(NC(=O)c2cscn2)cc1)c1cc(C(F)(F)F)cc(C(F)(F)F)c1` (configuration not stated), the IC50 in test [1] was over 3.7 µM; in test [2], 4.1 µM; in test [3], 0.0002 µM; in test [4], over 5 µM; in test [5], over 7.5 µM.

With `C[C@H](/N=C(\S)Nc1ccc(NC(=O)c2csnn2)cc1)c1cc(C(F)(F)F)cc(C(F)(F)F)c1`, the IC50 in test [1] was over 3.7 µM; in test [2], over 5 µM; in test [3], 0.003 µM; in test [4] it was over 5 µM; in test [5], over 7.5 µM.

Turning to `CCC(/N=C(\S)Nc1ccc(NC(=O)c2csnn2)cc1)c1cc(C(F)(F)F)cc(C(F)(F)F)c1` (configuration not stated), the half-inhibitory concentration (IC50) in test [1] was over 3.7 µM; in test [2], 5 µM; in test [3], 0.001 µM; in test [4], over 5 µM; in test [5], over 7.5 µM.

Consider `CC(/N=C(\S)Nc1ccc(NC(=O)c2csnn2)cc1)c1cc(C(F)(F)F)cc(C(F)(F)F)c1` (configuration not stated), for which the IC50 in test [1] was over 3.7 µM; in test [2], over 5 µM; in test [3] it was 0.003 µM; in test [4], over 5 µM; in test [5], over 7.5 µM.

On to `O=C(Nc1ccc(N/C(S)=N/Cc2cc(C(F)(F)F)cc(C(F)(F)F)c2)cc1)c1csnn1`, for which the IC50 is over 5 µM in test [1], over 5 µM in test [2], 0.002 µM in test [3] and over 5 µM in test [4].

With `O=C(Nc1ccc(N/C(S)=N/Cc2cc(C(F)(F)F)cc(C(F)(F)F)c2)cn1)c1csnn1`, the concentration for half-maximal inhibition (IC50) in test [1] is over 3.7 µM; in test [2], over 5 µM; in test [3], 0.0044 µM; in test [4] it was over 5 µM; in test [5], over 7.5 µM.

Consider `CCCC(/N=C(\S)Nc1ccc(NC(=O)c2csnn2)cc1)c1cc(C(F)(F)F)cc(C(F)(F)F)c1` (configuration not stated), for which the IC50 was over 3.7 µM in test [1]; over 5 µM in test [2]; 0.001 µM in test [3]; over 5 µM in test [4]; over 7.5 µM in test [5].

As for `O=C(Nc1ccc(/N=C(\S)Nc2cc(C(F)(F)F)cc(C(F)(F)F)c2)cc1)c1csnn1`, the IC50 in test [1] was over 5 µM; in test [2], over 5 µM; in test [3] it was 0.037 µM; in test [4], 5 µM.

On to `C[C@H](/N=C(\S)Nc1ccc(NC(=O)c2cscn2)cc1)c1cc(C(F)(F)F)cc(C(F)(F)F)c1`, for which the IC50 in test [1] is over 3.7 µM; in test [2], over 5 µM; in test [3] it was 0.0006 µM; in test [4], over 5 µM; in test [5], over 7.5 µM.

As to `O=C(Nc1ccc(N/C(S)=N/C(c2ccccc2)c2cc(C(F)(F)F)cc(C(F)(F)F)c2)cc1)c1csnn1` (configuration not stated), the IC50 in test [1] was over 3.7 µM; in test [2] it was over 5 µM; in test [3], 0.002 µM; in test [4], over 5 µM; in test [5], over 7.5 µM.

Turning to `C[C@H](/N=C(\S)Nc1ccc(NC(=O)c2cscn2)nc1)c1cc(C(F)(F)F)cc(C(F)(F)F)c1`, the IC50 in test [1] was over 3.7 µM; in test [2], over 5 µM; in test [3], 0.002 µM; in test [4] it was over 5 µM; in test [5], over 7.5 µM.

Consider `C[C@@H](/N=C(\S)Nc1ccc(NC(=O)c2cscn2)nc1)c1cc(C(F)(F)F)cc(C(F)(F)F)c1`, for which the IC50 in test [1] is over 3.7 µM; in test [2], over 5 µM; in test [3], 0.0028 µM; in test [4], 1 µM; in test [5], over 7.5 µM.

As to `C[C@H](/N=C(\S)Nc1ccc(NC(=O)c2csnn2)nc1)c1cc(C(F)(F)F)cc(C(F)(F)F)c1`, the IC50 in test [1] is over 3.7 µM; in test [2] it was 4.1 µM; in test [3], 0.003 µM; in test [4], over 5 µM; in test [5], 8 µM.

In the case of `C[C@@H](/N=C(\S)Nc1ccc(NC(=O)c2cscn2)cc1)c1cc(C(F)(F)F)cc(C(F)(F)F)c1`, the IC50 in test [1] is over 3.7 µM; in test [2], over 5 µM; in test [3], 0.0015 µM; in test [4], 2 µM; in test [5] it was over 7.5 µM.

As for `O=C(Nc1ccc(/N=C(\S)Nc2cc(C(F)(F)F)cc(C(F)(F)F)c2)cc1)c1cscn1`, the IC50 in test [1] is over 5 µM; in test [2], over 5 µM; in test [3], 0.016 µM; in test [4], over 5 µM.
